Read-outs that look alike come from different tables or passages of the source.
Experiments:
[1] = tested on: D2 receptors; conditions: previous studies (Zivin et al 1996, 1998; Sprah et al 1999); cited from earlier work
[2] = tested on: rats; test: Cocaine self-administration model in rats, saccharin as comparative stimulant; format: in vivo; conditions: for ED50: Rattus norvegicus, rats
Protocol: The action of the active substance LEK-8829 (in the form of bimaleate salt) at doses ranging from 0.25 to 2.5 mg/kg on sensations of pleasure induced by cocaine self-administration was assessed as the effect on the rate of cocaine self-administration in the experiments in five rats. For determination of the specificity of the effect on cocaine, a solution of saccharin was used as a comparative stimulant. […] In the range of medium doses, LEK-8829 caused an increase in overall input of cocaine self-administration in three animals.

[3] = tested on: Rhesus monkeys; test: Cocaine self-administration versus food intake in Rhesus monkeys; format: in vivo
Protocol: The effect of LEK-8829 (in the form of bimaleate salt) at doses of 0.032 to 0.32 mg/kg intramuscularly on cocaine self-administration in comparison with the effect on food intake (specificity of the effect on feelings of pleasure induced by cocaine, in comparison with non-specific sedative effect) was also tested in four Rhesus monkeys.

[4] = tested on: mice; test: Inhibition of spontaneous locomotor activity; format: in vivo; conditions: Mus musculus, ip, LEK-8829 bimaleate i.p.
[5] = tested on: male Wistar rats; test: Craving model: within session extinction and reinstatement paradigm in rats self-administering cocaine; format: in vivo, Rattus norvegicus
Protocol: The study was performed in male Wistar rats (Rattus norvegicus) (the number is given above the columns in the figures) each weighing 180 to 210 g at the beginning of the experiment. The animals used in this experiment were maintained on a 12-hour dark-light cycle under controlled conditions at temperature 22 to 24° C., individually housed in standard cages with free excess to food and water.
In the tests the following active substances were used: • Cocaine hydrochloride • Bromocriptine mesylate • LEK-8829 (9,10-didehydro-N-methyl-N-(2-propynyl)-6-methyl-8β-aminometylergoline bimaleate) Operant Cage for Self-Injecting
The rats were trained and tested in standard operant test chambers (Coulbourn Instruments, Allentown, Pa., USA). Test chambers were built in a modular form and placed in sound-attenuated cubicles. Each was equipped with a ventilating fan that also served as sound source to mask external sound. Chambers were equipped with bulbs emitting white lights. Each chamber contained two nose-poke operanda mounted in 2 cm from the floor and 10 cm apart on the same wall. […] The cocaine solution was administered via the catheter. The latter connected the rat to a syringe ([…] (RAZEL, model A, 10 rpm), installed outside the cage. Time schedule of the experiments and data acquisition were controlled by a computer operated by a software package (Graphic State Notation 2 2.002-00; Coulbourn Instruments, Allentown, Pa., USA).
Each rat was anesthetized with the anaesthetic mixture (ketamine 60 mg/kg and xylazine 8 mg/kg) and implanted with an indwelling jugular catheter. […]
The rats were trained in self-injection of cocaine in daily, 2-hour self-administration sessions during their light cycle, every day except on Saturdays and Sundays. […] Each activation of the active opening was followed by a 30-second period of inactivation (time-out period when the light in the cage was switched off and activation of the active opening was only recorded but without any consequences). […]

[6] = tested on: mice; test: Inhibition of increased locomotor activity produced by cocaine injection; format: in vivo
Protocol: In the experiments in eight mice, intraperitoneal injection of LEK-8829 (in the form of bimaleate salt) inhibited the increased locomotor activity produced by intraperitoneal cocaine injection of 20 mg/kg.

[7] = molecular target: D1 receptors (Rattus norvegicus, UniProt P18901); conditions: previous studies (Zivin et al 1996, 1998; Sprah et al 1999); cited from earlier work
[8] = tested on: Rhesus monkeys; test: Drug discrimination study (cocaine 0.4 mg/kg vs physiological saline) in Rhesus monkeys; format: in vivo; conditions: four Rhesus monkeys; doses 0.032 to 0.32 mg/kg; trained on cocaine 0.4 mg/kg vs saline
Description: (§1) According to the data from literature, it is well known that rodents and primates are capable to discriminate most psychostimulants abused by humans. Therefore, a model of the specific drug discrimination in experimental animals is a suitable method for the assessment of new active substances in case of the abuse of psychostimulants.

[9] = tested on: rats; test: Drug discrimination study (cocaine 10 mg/kg) in rats; format: in vivo
Description: as §1

D1 receptors, sequence (P18901 whole entry): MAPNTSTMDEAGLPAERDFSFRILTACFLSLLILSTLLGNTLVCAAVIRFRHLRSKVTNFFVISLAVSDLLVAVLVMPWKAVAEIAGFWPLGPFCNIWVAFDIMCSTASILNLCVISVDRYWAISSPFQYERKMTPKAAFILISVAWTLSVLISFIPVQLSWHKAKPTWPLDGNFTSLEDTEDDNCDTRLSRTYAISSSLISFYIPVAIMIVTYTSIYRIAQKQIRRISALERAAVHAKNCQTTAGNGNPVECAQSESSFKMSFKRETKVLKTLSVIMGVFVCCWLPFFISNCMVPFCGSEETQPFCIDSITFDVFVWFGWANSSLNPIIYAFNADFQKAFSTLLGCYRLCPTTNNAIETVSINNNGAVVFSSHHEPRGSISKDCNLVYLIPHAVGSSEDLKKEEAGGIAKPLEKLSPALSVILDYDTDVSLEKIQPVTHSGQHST

Row | Compound | effect on D2 receptors [1] | ED50 ([2]; non-specific effect, read-out: ED50, blocking effect on the input of saccharin) | ED50 ([2]; read-out: ED50, blocking effect on cocaine self-administration) | effect on the dose/response curve of cocaine self-administration ([2]; five rats, dose range printed 0.2.5 to 1.55 mg/kg, four of five animals) | effect on the curve dose/input of cocaine at the largest dose ([3]; Rhesus monkeys, 0.32 mg/kg i.m.) | effect on the curve dose/input of cocaine at small and medium doses ([3]; Rhesus monkeys, 0.032 and 0.1 mg/kg i.m.) | effect on food intake ([3]; Rhesus monkeys, 0.032 to 0.32 mg/kg i.m.) | effect on cocaine self-administration ([3]; four Rhesus monkeys, 0.032 to 0.32 mg/kg intramuscularly, dose-dependent) | ED50 [4] | effect on cocaine-induced self-injecting (activations of the active opening, last half-hour) ([5]; LEK-8829 i.v. 0.25 and 0.5 mg/kg, 30 minutes before cocaine 2 mg/kg i.v., p<0.05 vs SAL+COC) | effect on relapse triggered by cocaine (activations of the active opening, last hour) ([5]; i.p. 0.5 to 5 mg/kg, 30 minutes before cocaine 2 mg/kg i.v., p<0.05 vs SAL+COC) | ID50, inhibition of increased locomotor activity produced by cocaine ([6]; eight mice, LEK-8829 bimaleate i.p., cocaine 20 mg/kg i.p.) | ratio of ED50/ID50 (spontaneous vs cocaine-increased locomotor activity) ([6]; mice, selectivity of the effect against cocaine) | effect on D1 receptors [7] | discriminative stimulating effect of plain LEK-8829 in the sense of cocaine effect [8] | partial antagonism of cocaine effect ([9]; rats, dose 2.5 mg/kg) | replacement of the discriminative stimulating effect of cocaine ([9]; six rats, doses 0.25 to 2.5 mg/kg) | inhibition of the discriminative stimulating effect of cocaine ([9]; six rats, doses 0.5 to 5 mg/kg) | appetitive behaviour induced by the substance itself ([5]; bromocriptine 2 mg/kg i.v. before the cocaine injection)
1 | C#CCN(C)C[C@@H]1C=C2c3cccc4[nH]cc(c34)C[C@H]2N(C)C1 [LEK-8829, 9,10-didehydro-N-methyl-N-(2-propynyl)-6-methyl-8β-aminomethylergoline] | antagonistic effects on D2 receptors | 2.16 mg/kg | 0.17 mg/kg | produced a right shift of the curve in the ratio dose/response to cocaine | blocked the effect of cocaine along the entire (ascending and descending) part of the curve | decreased the ascending part of the curve | only a minor inhibiting effect on food intake | inhibited cocaine self-administration | 2.1 mg/kg | statistically significantly reduced cocaine-induced self-injecting | statistically significantly reduced a relapse triggered by cocaine | 1.2 mg/kg | 1.8 | agonist effects on D1 receptors | did not recognize the discriminative stimulating effect | 56% | did not replace the discriminative stimulating effect of cocaine | partly inhibited the discriminative stimulating effect of cocaine | 
2 | CC(C)C[C@H]1C(=O)N2CCC[C@H]2[C@]2(O)O[C@](NC(=O)[C@@H]3C=C4c5cccc6[nH]c(Br)c(c56)C[C@H]4N(C)C3)(C(C)C)C(=O)N12 [Bromocriptine, reference compound] |  |  |  |  |  |  |  |  |  |  |  |  |  |  |  |  |  |  | induced the appetitive behaviour

— patent US7632843B2, “Treatment of psychostimulant addiction” (priority 2002, dated 2009)
